Data: paper PMC8994207 (Journal of medicinal chemistry, 2021)
Entries after “also recorded” stand apart in the source; their conditions may differ. Read-outs that look alike come from different tables or passages of the source. Blank lines part the entries; values can stand above or below the compound they belong to.

Tests used:
OX2R = settings: read-out: EC50 at OX2R; weak agonist of both OX receptors; cited from earlier work
OX1R = settings: read-out: EC50 at OX1R; weak agonist of both OX receptors; cited from earlier work
[1] = cited from earlier work
mice = settings: cited from earlier work
rats = settings: EEG changes, locomotor activity, startle response latency; cited from earlier work
human OX1R = target: T1, human OX1R (Homo sapiens, UniProt O43613); experiment: OX1R calcium mobilization assay; settings: for agonist activity at OX1R (in words): calcium mobilization
T1 sequence (O43613 1-425): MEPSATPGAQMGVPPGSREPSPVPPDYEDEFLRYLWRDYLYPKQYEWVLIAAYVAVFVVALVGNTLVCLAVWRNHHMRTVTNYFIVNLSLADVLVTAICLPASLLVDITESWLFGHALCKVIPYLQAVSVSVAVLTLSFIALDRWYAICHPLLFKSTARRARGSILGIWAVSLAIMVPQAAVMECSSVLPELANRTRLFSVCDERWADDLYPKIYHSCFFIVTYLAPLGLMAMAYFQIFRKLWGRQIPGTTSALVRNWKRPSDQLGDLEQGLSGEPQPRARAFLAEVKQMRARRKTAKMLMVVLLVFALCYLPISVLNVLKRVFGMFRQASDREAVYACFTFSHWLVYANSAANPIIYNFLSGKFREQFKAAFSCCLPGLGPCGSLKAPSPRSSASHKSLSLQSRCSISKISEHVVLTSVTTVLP

human OX2R = target: T2, human OX2R (Homo sapiens, UniProt O43614); experiment: OX2R calcium mobilization assay; settings: for agonist activity at OX2R (in words): calcium mobilization
T2 sequence (O43614 1-444): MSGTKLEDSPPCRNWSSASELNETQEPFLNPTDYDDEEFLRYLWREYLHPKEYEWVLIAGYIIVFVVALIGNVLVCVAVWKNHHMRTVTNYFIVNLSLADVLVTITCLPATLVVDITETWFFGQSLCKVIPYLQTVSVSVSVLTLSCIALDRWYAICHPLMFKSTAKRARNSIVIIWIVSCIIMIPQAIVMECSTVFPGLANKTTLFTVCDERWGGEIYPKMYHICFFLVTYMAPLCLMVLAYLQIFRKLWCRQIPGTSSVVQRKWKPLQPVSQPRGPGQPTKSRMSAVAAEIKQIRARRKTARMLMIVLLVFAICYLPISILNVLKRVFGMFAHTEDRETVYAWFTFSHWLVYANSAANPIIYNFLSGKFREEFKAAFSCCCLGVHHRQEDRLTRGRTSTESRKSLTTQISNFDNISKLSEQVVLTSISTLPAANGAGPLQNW

12-month old mice = experiment: Sleep modulation study, continuous EEG/EMG recordings; format: in vivo
[2] = i.c.v. 30, 100, 300 nmol, light phase, up to 3 h post injection
[3] = i.p. 40 and 60 mg/kg, 6 h into the light phase, up to 3 h, mice
[4] = 40 mg/kg i.p., 4 h post-injection, vs saline
[5] = 40 mg/kg i.p., lights-on phase, 12-month old mice, 0-4 h post-injection, vs vehicle
[6] = i.p. injection, 12-month old mice

Compound: Cc1ccc(Cn2c(=N)n(CC(O)c3ccc(Cl)c(Cl)c3)c3ccccc32)cc1 (stereo not shown) [compound 1]
EC50 (OX2R): > 3.2 µM
EC50 (OX1R): > 3.2 µM
cytotoxicity [1]: OX receptor independent cytotoxicity

Compound: COc1ccc(-c2cccc(C(=O)N(C)C)c2)cc1S(=O)(=O)Nc1cccc(NCCNC(=O)c2ccccc2N(C)C)c1 [compound 2, 3’-(N-(3-((2-(2-(dimethylamino)benzamido)ethyl)amino)phenyl)sulfamoyl)-4’-methoxy-N,-N-dimethyl-[1,1’-biphenyl]-3-carboxamide]
percent time in NREM sleep (mice; [2]): decreased
time in wakefulness (mice; [2]): increased
sleep/wake parameters (mice; i.p. 20 mg/kg): did not have any effect
percent time in NREM sleep (mice; i.p. 40 mg/kg, mice): reduced
percent time in REM sleep (mice; [3]): decreased
percent time in wakefulness (mice; [3]): increased
wake time (mice; i.p. 40 or 60 mg/kg): increased
direct transitions from wakefulness to REM sleep (mice; i.p. 40 or 60 mg/kg, for 3 hours): decreased
cataplexy-like episodes (mice; orexin knock-out and orexin neuron-ablated mice): suppressed
wakefulness (mice; wild-type mice, i.c.v. 30–300 nmol and/or i.p. 40 mg/kg, hydrochloride salt): promoted wakefulness
morphine-induced sedative effects (rats): attenuated

Compound: CCCNC(=O)c1cccc(-c2ccc(OC)c(S(=O)(=O)Nc3cccc(NCCNC(=O)c4ccccc4N(C)C)c3)c2)c1 [compound 9, 3’-(N-(3-((2-(2-(dimethylamino)benzamido)ethyl)amino)phenyl)sulfamoyl)-4’-methoxy-N-p-ropyl-[1,1’-biphenyl]-3-carboxamide]
agonist activity at OX1R (in words) (human OX1R): no activity

Compound: COc1ccc(-c2cccc(CN(C)C)c2)cc1S(=O)(=O)Nc1cccc(NCCNC(=O)c2ccccc2N(C)C)c1 [compound 10, 2-(Dimethylamino)-N-(2-((3-((3’-((dimethylamino)methyl)-4-methoxy-[1,1’-biphenyl])-3-sulfonamido)phenyl)amino)ethyl)benzamide]
agonist activity at OX1R (in words) (human OX1R): no activity

Compound: COc1ccc(-c2cccc(C(=O)N(C)C)c2)cc1S(=O)(=O)Nc1cccc(N2CCN(C(=O)c3ccccc3N(C)C)CC2)c1 [compound 22, 3’-(N-(3-(4-(2-(dimethylamino)benzoyl)piperazin-1-yl)phenyl)sulfamoyl)-4’-methoxy-N,N-dimethyl-[1,1’-biphenyl]-3-carboxamide]
agonist activity at OX2R (in words) (human OX2R): all activities were lost
agonist activity at OX1R (in words) (human OX1R): all activities were lost

Compound: COc1ccc(-c2cccc(C(=O)N(C)C)c2)cc1S(=O)(=O)Nc1cccc(N2CCN(C(=O)c3cccc(C)c3)CC2)c1 [compound 23, 4’-Methoxy-N,N-dimethyl-3’-(N-(3-(4-(3-methylbenzoyl)piperazin-1-yl)phenyl)sulfamoyl)-[1,1’-biphenyl]-3-carboxamide]
agonist activity at OX2R (in words) (human OX2R): all activities were lost
agonist activity at OX1R (in words) (human OX1R): all activities were lost

Compound: COc1ccc(-c2cccc(C(=O)N(C)C)n2)cc1S(=O)(=O)Nc1cccc(NCCNC(=O)c2cccc(C)c2)c1 [compound 27, 6-(4-methoxy-3-(N-(3-((2-(3-methylbenzamido)ethyl)amino)phenyl)sulfamoyl)phenyl)-N,N-dimethylpicolinamide]
agonist activity at OX1R (in words) (human OX1R): full agonist

Compound: COc1ccc(/C=C/C(=O)N(C)C)cc1S(=O)(=O)Nc1cccc(NCCNC(=O)c2cccc(C)c2)c1 [compound 31, (E)-N-(2-((3-((5-(3-(dimethylamino)-3-oxoprop-1-en-1-yl)-2-methoxyphenyl)sulfonamido)-phenyl)amino)ethyl)-3-methylbenzamide]
agonist activity at OX2R (in words) (human OX2R): inactive
agonist activity at OX1R (in words) (human OX1R): inactive

Compound: COc1ccc(CCC(=O)N(C)C)cc1S(=O)(=O)Nc1cccc(NCCNC(=O)c2cccc(C)c2)c1 [compound 32, N-(2-((3-((5-(3-(dimethylamino)-3-oxopropyl)-2-methoxyphenyl)sulfonamido)phenyl)amin-o)ethyl)-3-methylbenzamide]
agonist activity at OX2R (in words) (human OX2R): inactive
agonist activity at OX1R (in words) (human OX1R): inactive

Compound: COc1ccc(-c2cccc(C(=O)NCCN(C)C)c2)cc1S(=O)(=O)Nc1cccc(NCCNC(=O)c2cccc(C)c2)c1 [compound 34, N-(2-(dimethylamino)ethyl)-4’-methoxy-3’-(N-(3-((2-(3-methylbenzamido)ethyl)amino)phenyl)sulfamoyl)-[1,1’-biphenyl]-3-carboxamide]
agonist activity at OX1R (in words) (human OX1R): complete loss of potency

Further lines, with some results ahead:

agonist activity at OX1R (in words) (human OX1R): no activity
Compound: COc1ccc(-c2cccc(C(=O)N(C)Cc3ccccc3)c2)cc1S(=O)(=O)Nc1cccc(NCCNC(=O)c2cccc(C)c2)c1 [compound 36, N-Benzyl-4’-methoxy-N-methyl-3’-(N-(3-((2-(3-methylbenzamido)ethyl)amino)phenyl)sulfa-moyl)-[1,1’-biphenyl]-3-carboxamide]

agonist activity at OX1R (in words) (human OX1R): complete loss of the OX1R potency
Compound: COc1ccc(-c2cccc(C(=O)NCc3ccccn3)c2)cc1S(=O)(=O)Nc1cccc(NCCNC(=O)c2cccc(C)c2)c1 [compound 38, 4’-Methoxy-3’-(N-(3-((2-(3-methylbenzamido)ethyl)amino)phenyl)sulfamoyl)-N-(pyridin-2-ylmethyl)-[1,1’-biphenyl]-3-carboxamide]

agonist activity at OX2R (in words) (human OX2R): full agonist
Emax (human OX2R; read-out: Emax at OX2R): ~100%
agonist activity at OX1R (in words) (human OX1R): full agonist
Emax (human OX1R; read-out: Emax at OX1R): ~100%
Compound: COc1ccc(-c2cccc(C(=O)N(C)Cc3ccncc3)c2)cc1S(=O)(=O)Nc1cccc(NCCNC(=O)c2cccc(C)c2)c1 [compound 40, 4’-Methoxy-N-methyl-3’-(N-(3-((2-(3-methylbenzamido)ethyl)amino)phenyl)sulfamoyl)-N-(pyridin-4-ylmethyl)-[1,1’-biphenyl]-3-carboxamide]
duration of NREM sleep episodes (12-month old mice; [4]): increased
duration of REM sleep episodes (12-month old mice; [4]): did not affect; also recorded: without effecting
duration of wake episodes (12-month old mice; [4]): increased
number of NREM sleep episodes (12-month old mice; [4]): Reduced
number of REM sleep episodes (12-month old mice; [4]): fewer episodes; also recorded: reduced
number of state transitions (12-month old mice; [4]): reduced
number of wake episodes (12-month old mice; [4]): reduced
time spent in NREM sleep (12-month old mice; [5]): reduced; also recorded: decreased
time spent in REM sleep (12-month old mice; [5]): reduced; also recorded: decreased
time spent in wakefulness (12-month old mice; 40 mg/kg i.p., quiet lights-on phase, 12-month old mice, 0-4 h post-injection, vs vehicle): significantly increased
sleep/wake consolidation (12-month old mice; [6]): increased; also recorded: improved
time asleep (12-month old mice; [6]): decreased

agonist activity at OX1R (in words) (human OX1R): total loss of activity
Compound: COc1ccc(-c2cccc(C(=O)N(C)C)c2)cc1C(=O)Nc1cccc(NCCNC(=O)c2cccc(C)c2)c1 [compound 43, 4-Methoxy-N^3’,N^3’-dimethyl-N^3-(3-((2-(3-methylbenzamido)ethyl)amino)phenyl)-[1,1’-biph-enyl]-3,3’-dicarboxamide]

agonist activity at OX1R (in words) (human OX1R): total loss of activity
Compound: COc1ccc(-c2cccc(C(=O)N(C)Cc3ccncc3)c2)cc1C(=O)Nc1cccc(NCCNC(=O)c2cccc(C)c2)c1 [compound 44, 4-Methoxy-N^3’-methyl-N^3-(3-((2-(3-methylbenzamido)ethyl)amino)phenyl)-N^3’-(pyridin-4-ylmethyl)-[1,1’-biphenyl]-3,3’-dicarboxamide]
